The NIST ThermoML archive (doi:10.1016/j.tca.2005.08.036)

Test: mn = molality of the nth substance listed, in mol/kg
Details: Liquid, Capillary tube (Ostwald / Ubbelohde) method

[I-].[Li+] [lithium iodide] + O
viscosity [mPa·s]
Details	100 kPa	10000 kPa	40000 kPa
293.15 K, m1 = 0.08	1.009	1.005	0.9978
293.15 K, m1 = 0.16	1.015	1.012	1.004
293.15 K, m1 = 0.2832	1.025	1.02	1.014
293.15 K, m1 = 0.6621	1.05	1.047	1.039
293.15 K, m1 = 1.605	1.122	1.118	1.112
293.15 K, m1 = 2.16	1.158	1.154	1.147
293.15 K, m1 = 3.089	1.227	1.224	1.215
298.15 K, m1 = 0.08	0.8961	0.8946	0.892
298.15 K, m1 = 0.16	0.9025	0.9012	0.8979
298.15 K, m1 = 0.2832	0.9114	0.9098	0.907
298.15 K, m1 = 0.6621	0.9363	0.9351	0.9225
298.15 K, m1 = 1.605	1.002	1.001	0.9979
298.15 K, m1 = 2.16	1.04	1.038	1.035
298.15 K, m1 = 3.089	1.108	1.101	1.097
304.75 K, m1 = 0.6621	0.8141	0.8149	0.8164
304.77 K, m1 = 0.08	0.7764	0.777	0.7779
307.45 K, m1 = 3.089	0.9235	0.925	0.9291
308.74 K, m1 = 0.16	0.7215	0.7221	0.7256
310.64 K, m1 = 0.2832	0.7028	0.7047	0.7074
311.74 K, m1 = 1.605	0.7684	0.77	0.7748
312.45 K, m1 = 2.16	0.7939	0.7957	0.8016
322.51 K, m1 = 0.2832	0.5682	0.5704	0.5768
323.45 K, m1 = 1.605	0.6301	0.6327	0.6406
323.74 K, m1 = 0.16	0.5504	0.5527	0.5599
324.02 K, m1 = 2.16	0.6554	0.6584	0.6666
324.23 K, m1 = 0.6621	0.5733	0.5758	0.5829
324.62 K, m1 = 0.08	0.5385	0.5407	0.5475
325.64 K, m1 = 3.089	0.6865	0.6896	0.6986
341.69 K, m1 = 0.08	0.4164	0.4192	0.4252
343.64 K, m1 = 0.6621	0.4337	0.4368	0.4458
344.06 K, m1 = 0.16	0.4065	0.4093	0.4177
344.66 K, m1 = 1.605	0.4673	0.4708	0.4804
345.43 K, m1 = 2.16	0.4884	0.4912	–
